Counter-ions that a name gives are not always drawn.
Columns and labels:
activated human C1 = molecular target: T1, activated human C1 (Homo sapiens, UniProt P09871); assay: Test Code 026 (C1 inhibitor); type: biochemical; settings: in vitro; serial twofold dilution assay, higher well number indicates higher activity
T1 construct: fluid-phase human C2 as substrate in presence of C4
Excerpt: (§1) An active inhibitor protects C2 from C1 and C4; (ii) Test Code 035 (C3-C9 inhibitor)--This test determines the ability of the late components of human complement (C3-C9) to lyse EAC 142 in the presence of appropriate dilutions of the test compound. An active inhibitor protects EAC 142 from lysis by human C3-C9; (iii) Test Code 036 (C-Shunt inhibitor)--In this test human erythrocytes rendered fragile are lysed in autologous serum via the shunt pathway activated by cobra venom factor in the presence of appropriate dilutions of the test compound. Inhibition of the shunt pathway results in failure of lysis; (iv) Cap 50 Test--Here, appropriate amounts of the test compound are added to a pool of guinea pig serum in vitro, after which the undiluted serum capillary tube assay of U.S. Pat. No. 3,876,376 is run. The concentration of compound inhibiting 50% is reported; and (v) Guinea Pig Intraperitoneal Test (GPIP)--Guinea pigs weighing about 300 g are dosed intraperitoneally (i.p.) with 200 mg/kg of the test compound dissolved in saline and adjusted to pH 7-8. […] Percent inhibition is calculated by comparison with simultaneous controls. […]

[1] = tested on: late components of human complement (C3-C9); assay: Test Code 035 (C3-C9 inhibitor), lysis of EAC 142; type: biochemical; settings: in vitro; serial twofold dilution assay, higher well number indicates higher activity
Excerpt: as §1

shunt pathway = assay: Test Code 036 (C-Shunt inhibitor), lysis of human erythrocytes in autologous serum activated by cobra venom factor; type: cell-based; settings: in vitro; serial twofold dilution assay, higher well number indicates higher activity
Excerpt: as §1

complement activity = assay: Guinea Pig Intraperitoneal Test (GPIP); type: in vivo; settings: 200 mg/kg i.p.; for In vivo Activity (Guinea Pigs) % Inhibition Intraperitoneal, 30 minutes: serum complement activity 30 minutes after injection; for In vivo Activity (Guinea Pigs) % Inhibition Intraperitoneal, 60 minutes: serum complement activity 60 minutes after injection; for In vivo Activity (Guinea Pigs) % Inhibition Intraperitoneal, 120 minutes: serum complement activity 120 minutes after injection
Excerpt: An active inhibitor protects C2 from C1 and C4; (ii) Test Code 035 (C3-C9 inhibitor)--This test determines the ability of the late components of human complement (C3-C9) to lyse EAC 142 in the presence of appropriate dilutions of the test compound. An active inhibitor protects EAC 142 from lysis by human C3-C9; (iii) Test Code 036 (C-Shunt inhibitor)--In this test human erythrocytes rendered fragile are lysed in autologous serum via the shunt pathway activated by cobra venom factor in the presence of appropriate dilutions of the test compound. Inhibition of the shunt pathway results in failure of lysis; (iv) Cap 50 Test--Here, appropriate amounts of the test compound are added to a pool of guinea pig serum in vitro, after which the undiluted serum capillary tube assay of U.S. Pat. No. 3,876,376 is run. The concentration of compound inhibiting 50% is reported; and (v) Guinea Pig Intraperitoneal Test (GPIP)--Guinea pigs weighing about 300 g are dosed intraperitoneally (i.p.) with 200 mg/kg of the test compound dissolved in saline and adjusted to pH 7-8. Approximately 0.4 ml blood samples, taken by orbital sinus puncture 30 minutes and one hour after injections, are collected directly into centrifuge tubes; 5 ml blood samples, taken by decapitation 2 hours after injection are collected directly into diSPo® beakers. The samples were allowed to clot, centrifuged, and the resultant sera were assayed for complement activity using the capillary complement assay. Percent inhibition is calculated by comparison with simultaneous controls. The results of the GPIP appear in Table I together with results of Test Code 026, 035, 036 and Cap 50.

T1 sequence (P09871 16-688): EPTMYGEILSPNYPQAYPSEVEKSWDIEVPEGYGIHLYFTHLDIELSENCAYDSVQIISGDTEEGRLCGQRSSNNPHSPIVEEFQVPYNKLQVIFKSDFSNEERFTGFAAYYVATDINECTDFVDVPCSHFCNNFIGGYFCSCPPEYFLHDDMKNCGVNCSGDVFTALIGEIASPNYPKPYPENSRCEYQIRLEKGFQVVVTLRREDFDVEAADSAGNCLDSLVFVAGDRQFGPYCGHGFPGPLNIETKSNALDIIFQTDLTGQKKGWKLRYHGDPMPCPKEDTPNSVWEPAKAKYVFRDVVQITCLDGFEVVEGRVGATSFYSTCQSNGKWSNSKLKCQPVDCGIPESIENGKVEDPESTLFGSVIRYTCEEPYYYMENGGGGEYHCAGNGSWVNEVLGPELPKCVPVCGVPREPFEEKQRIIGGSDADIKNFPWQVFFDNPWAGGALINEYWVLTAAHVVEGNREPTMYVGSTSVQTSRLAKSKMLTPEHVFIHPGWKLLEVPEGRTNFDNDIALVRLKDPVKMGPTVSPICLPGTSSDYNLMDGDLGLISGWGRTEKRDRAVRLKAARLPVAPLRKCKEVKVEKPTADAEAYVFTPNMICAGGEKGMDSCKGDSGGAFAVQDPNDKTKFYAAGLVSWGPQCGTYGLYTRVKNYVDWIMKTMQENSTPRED
T1 sequence (P00736 18-705 partner): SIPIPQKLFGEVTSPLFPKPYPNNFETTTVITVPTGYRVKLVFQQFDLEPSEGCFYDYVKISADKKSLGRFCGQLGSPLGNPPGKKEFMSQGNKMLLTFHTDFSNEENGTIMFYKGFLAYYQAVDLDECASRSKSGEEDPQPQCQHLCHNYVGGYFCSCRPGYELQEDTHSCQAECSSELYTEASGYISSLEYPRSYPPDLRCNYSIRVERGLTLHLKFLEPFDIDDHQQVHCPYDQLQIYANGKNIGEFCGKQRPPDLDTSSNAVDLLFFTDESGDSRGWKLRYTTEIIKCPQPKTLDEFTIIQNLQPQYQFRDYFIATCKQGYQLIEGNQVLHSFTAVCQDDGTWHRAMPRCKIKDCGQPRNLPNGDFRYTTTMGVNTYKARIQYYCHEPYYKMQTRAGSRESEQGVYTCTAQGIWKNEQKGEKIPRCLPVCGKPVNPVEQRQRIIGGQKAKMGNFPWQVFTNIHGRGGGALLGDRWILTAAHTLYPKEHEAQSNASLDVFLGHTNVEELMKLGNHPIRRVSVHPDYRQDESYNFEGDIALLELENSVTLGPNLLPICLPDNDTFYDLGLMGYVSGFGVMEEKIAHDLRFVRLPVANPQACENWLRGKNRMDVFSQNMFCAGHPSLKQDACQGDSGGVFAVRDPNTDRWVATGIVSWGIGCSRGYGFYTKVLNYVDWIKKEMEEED
T1 sequence (P02745 23-245 partner): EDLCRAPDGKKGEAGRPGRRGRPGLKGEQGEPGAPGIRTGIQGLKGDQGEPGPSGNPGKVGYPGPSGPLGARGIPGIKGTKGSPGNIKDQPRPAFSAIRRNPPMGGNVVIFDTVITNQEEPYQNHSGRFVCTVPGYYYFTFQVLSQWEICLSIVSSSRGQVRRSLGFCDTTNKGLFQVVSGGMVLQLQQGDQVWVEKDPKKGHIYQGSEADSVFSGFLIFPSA
T1 sequence (P02746 28-253 partner): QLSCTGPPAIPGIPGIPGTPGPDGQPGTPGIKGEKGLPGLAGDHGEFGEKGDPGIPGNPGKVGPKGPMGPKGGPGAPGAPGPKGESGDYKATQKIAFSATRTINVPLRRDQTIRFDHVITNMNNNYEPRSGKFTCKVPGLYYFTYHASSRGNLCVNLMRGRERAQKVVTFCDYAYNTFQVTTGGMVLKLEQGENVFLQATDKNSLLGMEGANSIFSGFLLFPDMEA
T1 sequence (P02747 29-245 partner): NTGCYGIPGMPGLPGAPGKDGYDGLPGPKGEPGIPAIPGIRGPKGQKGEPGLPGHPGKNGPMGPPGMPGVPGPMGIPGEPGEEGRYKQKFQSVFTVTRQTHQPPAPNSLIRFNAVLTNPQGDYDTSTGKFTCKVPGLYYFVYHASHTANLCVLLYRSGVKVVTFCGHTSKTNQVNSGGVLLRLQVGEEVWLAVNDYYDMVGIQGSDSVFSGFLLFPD

Compound | Cl 026* Wells (activated human C1) | C-Late 035* Wells [1] | C-Shunt Inhibition 036* Wells (shunt pathway) | In vivo Activity (Guinea Pigs) % Inhibition Intraperitoneal, 30 minutes (complement activity) | In vivo Activity (Guinea Pigs) % Inhibition Intraperitoneal, 60 minutes (complement activity) | In vivo Activity (Guinea Pigs) % Inhibition Intraperitoneal, 120 minutes (complement activity)
O=C(O)c1cc(NS(=O)(=O)c2cc(S(=O)(=O)Nc3cc(C(=O)O)c(C(=O)O)c(C(=O)O)c3)c3cc(S(=O)(=O)Nc4cc(C(=O)O)c(C(=O)O)c(C(=O)O)c4)cc(S(=O)(=O)Nc4cc(C(=O)O)c(C(=O)O)c(C(=O)O)c4)c3c2)cc(C(=O)O)c1C(=O)O [5,5',5",5'"-[1,3,5,7-Naphthalenetetrayltetrakis(sulfonylimino)]tetra-1,2,3-benzenetricarboxylic acid, dodecasodium salt] | 8 Wells | 5 Wells | 5 Wells | 80% | 77% | 85%
O=C([O-])c1cc(NS(=O)(=O)c2cc(S(=O)(=O)Nc3cc(C(=O)[O-])cc(C(=O)[O-])c3)c3cc(S(=O)(=O)Nc4cc(C(=O)[O-])cc(C(=O)[O-])c4)cc(S(=O)(=O)Nc4cc(C(=O)[O-])cc(C(=O)[O-])c4)c3c2)cc(C(=O)[O-])c1.[Na+].[Na+].[Na+].[Na+].[Na+].[Na+].[Na+].[Na+] [5,5',5",5"'-[1,3,5,7-Naphthalenetetrayltetrakis(sulfonylimino)]tetraisophthalic acid, octasodium salt] | 7 Wells | 2 Wells | 6 Wells | 66% | 71% | 76%
